# Tests used:
# [1] = Stability in human liver microsomes in vitro; type: in vitro ADME; details: for microsomal CLint: read-out: CLint(mic)
# Protocol: Test Example 4: Test for Stability in Human Liver Microsomes In Vitro Eight 96-well incubation plates were prepared and named [NT], Blank60 and NCF60, respectively. […] No test compound or control compound was added to Blank60 plate, and samples were taken after incubation for 60 min. NCF60 plate was incubated with a potassium phosphate buffer instead of an NADPH regeneration system solution (Sigma, N0505) for 60 min. […] Only the microsome working solution was added to Blank60 plate, and the incubation plates Blank60, T5, T15, T30, T45 and T60 except T0 and NCF60 were then placed in a water bath at 37° C. and pre-incubated for about 10 min. To the samples of T0 plate, 600 μL of a stop solution (acetonitrile:methanol (95:5, v/v) solution containing 100 ng/mL of tolbutamide (Sigma, T0891)) was added first, and the NADPH regeneration system working solution was then added. 98 μL of a potassium phosphate buffer was added to each well of NCF60 plate and incubated for 60 min. After the pre-incubation in the incubation plates Blank60, T5, T15, T30, T45 and T60 was completed, 98 μL of the NADPH regeneration system working solution was added to each sample well to initiate the reaction. After an appropriate incubation time (such as 5, 15, 30, 45 and 60 min), 600 μL of a stop solution was added to each sample well and the control sample well in Blank60, […] the reaction. All the sample plates were shaken uniformly and centrifuged at 3220×g for 20 min. 200 μL of test sample supernatant was separately taken and diluted in 200 μL of an aqueous solution containing 0.3% formic acid for LC-MS/MS analysis, and 100 μL of control sample supernatant was taken and diluted in 300 μL of pure water for LC-MS/MS analysis. Calculation was performed according to the following formula: [formula] [formula] [formula] [formula] [formula] [formula]
# [2] = system: Human breast cancer cells MCF-7; experiment: MCF-7 cell proliferation experiment; type: cell-based; details: MCF-7 cells, 72 hours, Cell Titer-Glo
# Protocol: Test Example 2: MCF-7 Cell Proliferation Experiment
# Human breast cancer cells MCF-7 (HTB-22, purchased from ATCC) were inoculated into a 96-well plate. The culture medium was an MEM (Hyclone, SH30024.01B) culture medium containing 10% of FBS (Gibco, 10099-141), 1% of pyruvic acid (Sigma, S8636), and 1% of nonessential amino acid (Sigma, M7145), and the inoculation density was 4,000 cells/well. The cells were cultured at 37° C., 5% CO2. The compound was prepared into a 20 mM stock solution, which was subjected to gradient dilution to a final concentration of […] with 100% DMSO (Sigma, D2650) and then diluted 20 folds with a culture medium containing 2% of FBS. After 24 hours of culture, the culture medium was removed, 90 μL of a culture medium containing 2% of FBS and 10 μL of drug were added to each well, while 10 μL of DMSO was added to the control group, and they were gently shaken and mixed. The blank group only contained 100 μL of 2% FBS culture medium. They were placed in an incubator and cultured at 37° C., 5% CO2. After 72 hours, 50 μL of mixed Cell Titer-Glo (Promega, G7571) was added. They were shaken and mixed uniformly, and placed at room temperature for 10 min. The chemiluminescence signal value was determined. The negative control was 0.5% DMSO well.
# [3] = molecular target: ERα (Homo sapiens (Human), UniProt P03372); experiment: Degradation effect of compound on ERα (ERα DuoSet IC ELISA in MCF-7 cells); type: cell-based; details: 24 h with compound; for DC50: read-out: IC50 value of ERα degradation by compound
# Chain of ERα (P03372 whole entry): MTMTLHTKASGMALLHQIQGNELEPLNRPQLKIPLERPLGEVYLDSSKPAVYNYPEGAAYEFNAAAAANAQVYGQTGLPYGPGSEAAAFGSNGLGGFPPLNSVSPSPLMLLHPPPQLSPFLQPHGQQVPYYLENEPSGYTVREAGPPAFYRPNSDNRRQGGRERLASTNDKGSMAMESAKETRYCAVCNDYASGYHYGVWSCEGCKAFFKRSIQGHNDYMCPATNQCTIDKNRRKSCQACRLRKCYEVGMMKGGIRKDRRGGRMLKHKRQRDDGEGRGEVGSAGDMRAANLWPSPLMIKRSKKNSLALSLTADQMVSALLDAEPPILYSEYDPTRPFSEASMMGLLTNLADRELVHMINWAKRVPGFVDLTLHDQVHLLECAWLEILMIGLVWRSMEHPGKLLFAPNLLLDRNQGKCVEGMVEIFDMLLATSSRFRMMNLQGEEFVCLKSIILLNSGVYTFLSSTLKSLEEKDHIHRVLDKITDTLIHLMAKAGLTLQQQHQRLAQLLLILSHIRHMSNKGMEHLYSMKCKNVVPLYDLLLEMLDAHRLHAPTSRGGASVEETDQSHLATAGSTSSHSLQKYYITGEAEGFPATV
# Protocol: In this test example, ERα DuoSet IC ELISA Kit (R&D, DYC5715) was used to detect the degradation effect of the compound on ERα. On the first day of the experiment, human breast cancer cells MCF-7 (the source was as above) were inoculated into a 24-well plate. The culture medium was an MEM culture medium containing 10% of activated-carbon-treated FBS (Tocyto, UT61204), 1% of pyruvic acid and 1% of nonessential amino acid. The inoculation density was 150,000 cells/well. The cells were cultured at 37° C., 5% CO2 for 24 h.
# On the second day of the experiment, the compound to be tested was diluted in gradient and added to a 24-well plate containing cells. The cells were cultured for 24 h at 37° C., 5% CO2. ERα capture antibody was diluted to 1 μg/ml with PBS (Corning, 21-040-CVR) and added to a 96-well plate at 100 μL/well, and the plate was […] coated overnight at room temperature.
# On the third day of the experiment, the coated 96-well plate was washed three times with PBS, 300 μL of a blocking solution (R&D, DY995) was added to each well, and the plate was blocked at room temperature for 1 h. The 24-well plate was washed once with PBS, and the residual liquid was sucked off. […] The diluted cell lysate was taken and added to the blocked 96-well plate, with 100 μL per well, and incubated at room temperature for 2 h. The plate was washed three times with a washing solution (R&D, WA126), and a primary antibody was then added. After incubation for 1 h, the 96-well plate was washed four times, a secondary antibody was added, and incubation was carried out at room temperature in the dark for 30 min. The plate was washed four times with the washing solution, and TMB (R&D, DY999) was added. After 15 minutes of development, the reaction was terminated with a stop solution (R&D, DY994), and the light absorption at 450 nm was read.
# [4] = human liver microsomes, microsome protein 1 mg/mL working solution, NADPH
# [5] = human liver microsomes, scaled to liver
molecule,measurement,setting,value
"C[C@@H]1Cc2c(ccc3[nH]c(=O)oc23)[C@@H](c2ccc(NC3CN(CCCF)C3)cn2)N1CC(F)(F)F [Example 5, (6S,8R)-6-(5-((1-(3-fluoropropane)azetidin-3-yl)amino)pyridin-2-yl)-8-methyl-7-(2,2,2-trifluoroethyl)-6,7,8,9-tetrahydrooxazolo[5,4-f]isoquinolin-2(3H)-one]",half-life,[1]; [4],1.26 h
same,CLint scaled,[1]; [5],16.5 mL/min/kg
same,microsomal CLint,[1]; human liver microsomes,18.4 µL/min/mg
"C[C@@H]1Cc2c(ccc3[nH]c(=O)oc23)[C@@H](c2ccc(OCCCN3CCN(CCNc4cccc5c4CN(C4CCC(=O)NC4=O)C5=O)CC3)cn2)N1CC(F)(F)F (stereo partly drawn) [Example 43, 3-(4-((2-(4-(3-((6-((6S,8R)-8-methyl-2-oxo-7-(2,2,2-trifluoroethyl)-2,3,6,7,8,9-hexahydrooxazolo[5,4-f]isoquinolin-6-yl)pyridin-3-yl)oxy)propyl)piperazin-1-yl)ethyl)amino)-1-oxoisoindolin-2-yl)piperidine-2,6-dione]",IC50,"[2]; Homo sapiens, MCF7",690 pM
same,DC50,[3],630 pM
"C[C@@H]1Cc2c([nH]c3ccccc23)[C@@H](c2c(F)cc(/C=C/C(=O)O)cc2F)N1CC(C)(C)F [AZD9496, reference compound]",IC50,"[2]; Homo sapiens, MCF7",3840 pM
"C[C@@H]1Cc2c(ccc3[nH]c(=O)oc23)[C@@H](c2c(F)cc(OCCNC/C=C/C(=O)N(C)C)cc2F)N1CC(F)(F)F [Example 16, (E)-4-((2-(3,5-difluoro-4-((6S,8R)-8-methyl-2-oxy-7-(2,2,2-trifluoroethyl)-2,3,6,7,8,9-hexahydrooxazolo[5,4-f]isoquinolin-6-yl)phenoxy)ethyl)amino)-N,N-dimethylbut-2-enamide]",IC50,"[2]; Homo sapiens, MCF7",800 pM
"C[C@@H]1Cc2c(ccc3[nH]c(=O)oc23)[C@@H](c2c(F)cc(N3CC4(CN(CCF)C4)C3)cc2F)N1CC(F)(F)F [Example 8, (6S,8R)-6-(2,6-difluoro-4-(6-(2-fluoroethyl)-2,6-diazspiro[3.3]hept-2-yl)phenyl)-8-methyl-7-(2,2,2-trifluoroethyl)-6,7,8,9-tetrahydrooxazolo[5,4-f]isoquinolin-2(3H)-one]",half-life,[1]; [4],1.43 h
same,CLint scaled,[1]; [5],14.5 mL/min/kg
same,microsomal CLint,[1]; human liver microsomes,16.1 µL/min/mg
"C[C@@H]1Cc2c(ccc3[nH]c(=O)oc23)[C@@H](c2c(F)cc(NC3CN(C/C=C/C(=O)N(C)C)C3)cc2F)N1CC(F)(F)F [Example 35, (E)-4-(3-((3,5-difluoro-4-((6S,8R)-8-methyl-2-oxo-7-(2,2,2-trifluoroethyl)-2,3,6,7,8,9-hexahydrooxazolo[5,4-f]isoquinolin-6-yl)phenyl)amino)azetidin-1-yl)-N,N-dimethylbut-2-enamide]",IC50,"[2]; Homo sapiens, MCF7",820 pM
"C[C@@H]1Cc2c(ccc3[nH]c(=O)oc23)[C@@H](c2ccc(O[C@H]3CCN(CCCF)C3)cn2)N1CC(F)(F)F [Example 29, (6S,8R)-6-(5-(((S)-1-(3-fluoropropane)pyrrolidin-3-yl)oxy)pyridin-2-yl)-8-methyl-7-(2,2,2-trifluoroethyl)-6,7,8,9-tetrahydrooxazolo[5,4-f]isoquinolin-2(3H)-one]",IC50,"[2]; Homo sapiens, MCF7",710 pM
"COc1cc(NC2CN(CCCF)C2)cnc1[C@@H]1c2ccc3[nH]c(=O)oc3c2C[C@@H](C)N1CC(F)(F)F [Example 28, (6S,8R)-6-(5-((1-(3-fluoropropyl)azetidin-3-yl)amino)-3-methoxypyridin-2-yl)-8-methyl-7-(2,2,2-trifluoroethyl)-6,7,8,9-tetrahydroxazolo[5,4-f]isoquinolin-2(3H)-one]",IC50,"[2]; Homo sapiens, MCF7",400 pM
"C[C@@H]1Cc2c(ccc3[nH]c(=O)oc23)[C@@H](c2c(F)cc(O[C@H]3CCN(CCCF)C3)cc2F)N1CC(F)(F)CO [Example 13, (6S,8R)-7-(2,2-difluoro-3-hydroxypropyl)-6-(2,6-difluoro-4-(((S)-1-(3-fluoropropane)pyrrolidin-3-yl)oxy)phenyl)-8-methyl-6,7,8,9-tetrahydrooxazolo[5,4-f]isoquinolin-2(3H)-one]",IC50,"[2]; Homo sapiens, MCF7",300 pM
same,DC50,[3],230 pM
C[C@@H]1Cc2c(ccc3[nH]c(=O)oc23)[C@@H](c2c(F)cc(O[C@H]3CCN(CCCF)C3)cc2F)N1CC(F)(F)F [Example 11],IC50,"[2]; Homo sapiens, MCF7",380 pM
same,DC50,[3],620 pM
"(E)-4-((S)-3-((3,5-difluoro4-((6S,8R)-8-methyl-2-oxo-7-(2,2,2-trifluoroethyl)-2,3,6,7, 8,9-hexahydrooxazolo[5,4-f]isoquinolin-6-yl)phenoxy)pyrrolidin-1-yl)-N,N-dimethylbut-2-enamide [Example 39]",IC50,[2],490 pM
"C[C@@H]1Cc2c(ccc3[nH]ncc23)[C@@H](c2c(F)cc(OCCN3CC(CF)C3)cc2F)N1CC(C)(C)F [Comparative Compound 1, (6S,8R)-6-(2,6-difluoro-4-(2-(3-(fluoromethyl)azetidin-1-yl)ethoxy)phenyl)-7-(2-fluoro-2-methylpropyl)-8-methyl-6,7,8,9-tetrahydro-3H-benzopyrazolo[4,3-f]isoquinoline, reference compound]",IC50,[2],2680 pM
same,T1/2,[1]; [4],0.703 h
same,CLint(liver),[1]; [5],29.6 mL/min/kg
same,CLint(mic),"[1]; human, microsomes",32.9 µL/min/mg
same,IC50,[3],1890 pM
"C[C@@H]1Cc2c(ccc3[nH]c(=O)oc23)[C@@H](c2ncc(NC3CN(CCCF)C3)cc2F)N1CC(F)(F)F [Example 27, (6S,8R)-6-(3-fluoro-5-((1-(3-fluoropropyl)azetidin-3-yl)amino)pyridin-2-yl)-8-methyl-7-(2,2,2-trifluoromethyl)-6,7,8,9-tetrahydroxazolo[5,4-f]isoquinolin-2(3H)-one]",IC50,"[2]; Homo sapiens, MCF7",1630 pM
"C[C@@H]1Cc2c(ccc3[nH]ncc23)[C@@H](c2ccc(NC3CN(CCCF)C3)cn2)N1CC(F)(F)F [AZD9833, reference compound]",IC50,"[2]; Homo sapiens, MCF7",2450 pM
same,half-life,[1]; [4],1.33 h
same,CLint scaled,[1]; [5],15.6 mL/min/kg
same,microsomal CLint,[1]; human liver microsomes,17.3 µL/min/mg
C[C@@H]1Cc2c(ccc3[nH]c(=O)oc23)[C@@H](c2c(F)cc(O[C@@H]3CCN(C/C=C/C(=O)N(C)C)C3)cc2F)N1CC(F)(F)F [Example 37],IC50,"[2]; Homo sapiens, MCF7",610 pM

# From patent US20240217988A1, “ESTROGEN RECEPTOR ANTAGONIST” (Shenzhen Forward Pharmaceuticals Co., Limited, priority 2021, published 2024)
